# Test results as given in US20160101148A1, “TREATMENT AND PREVENTION OF BACTERIAL SKIN INFECTIONS USING ORITAVANCIN” (priority 2013, published 2016).
# Tests used:
# [1] = test system: ABSSSI suspected or proven to be due to a gram-positive pathogen, including MRSA; assay: SOLO I Phase 3 trial, efficacy: single dose IV oritavancin versus IV vancomycin for 7 to 10 days; assay type: in vivo, human; conditions: for Difference in lesion size reduction ≧20% rate (oritavancin minus vancomycin) / Difference in primary efficacy endpoint rate (oritavancin minus vancomycin): ECE; for Lesion Size Reduction ≧20% From Baseline / Primary efficacy endpoint response rate (cessation of spread, absence of fever, no rescue antibiotics): ECE 48 to 72 hours; for Difference in investigator-assessed clinical cure rate (oritavancin minus vancomycin) / Difference in sustained clinical cure rate (oritavancin minus vancomycin): PTE; for Investigator-Assessed Clinical Cure / Sustained Clinical Cure: PTE 7 to 14 days after EOT
# Procedure: The primary efficacy endpoint comprised: 1) cessation of spreading or reduction in the size of the baseline lesion, 2) absence of fever, and 3) no rescue antibiotic, at 48 to 72 hours, for the modified intent to treat population.
# The study design was consistent with current guidelines from FDA (U.S. Food and Drug Administration. Guidance for Industry Acute Bacterial Skin and Skin Structure Infections: Developing Drugs for Treatment (DRAFT GUIDANCE). Available via Internet at the URL containing: fda.gov/downloads/Drugs/GuidanceComplianceRegulatoryInformation/Guidances/ucm071185.p df) and EMA (European Medicines Agency Committee for Medicinal Products for Human Use. Addendum to the note for guidance on evaluation of medicinal products indicated for treatment of bacterial infections (CHMP/EWP/558/95 REV 2) to address indication-specific clinical data (draft). 2012. Available via Internet at the URL containing: ema.europa.eu/docs/en_GB/document_library/Scientific_guideline/2012/07/WC500129443.pdf) and Foundation for National Institutes of Health guidance was considered for analyses (Talbot G H etl. Clin Infect Dis. 2012. 55(8):1114-1121). The protocol was approved by institutional review boards/ethics committees and all patients provided written informed consent. The study was conducted from January 2011 through October 2012 at 46 study centers in Mexico, Spain, Germany, Romania, Russia, Ukraine, Israel, India, and the United States. […] Aztreonam and metronidazole were permitted for gram-negative and anaerobic cover, respectively.
# Clinical evaluations were performed at the following time points: Early Clinical Evaluation (ECE) at 48 to 72 hours after the initiation of the study drug infusion, End of Therapy (EOT) at Day 7 to Day 10 or the day the patient stopped study drug or changed to non-study drug therapy for primary ABSSSI, Day 10 Evaluation defined as 10 days after the initiation of the study drug infusion, Post Therapy Evaluation (PTE) at 7 to 14 days after the EOT visit, and Safety Follow-up at 60 days (+7 days) after the initiation of the study drug infusion. Safety data was reviewed by a data monitoring committee.
# Eligible patients were to be at least 18 years of age with diagnosis of ABSSSI that was suspected or proven to be due to a gram-positive pathogen and which required at least 7 days of IV therapy. The diagnosis of ABSSSI was defined as wound infections (either traumatic or surgical in origin), cellulitis/erysipelas or major cutaneous abscess with surrounding erythema, edema, and/or induration of at least 75 cm^2. The onset of wound infections or cellulitis/erysipelas must have occurred within 7 days prior to randomization. Patients also had to present with signs and symptoms of systemic inflammation. Patients were not eligible to participate if they received systemic or topical antibacterial therapy with gram-positive activity within the preceding 14 days.
# The primary efficacy endpoint was a composite outcome of 1) cessation of spreading or reduction in the size of the baseline lesion, 2) absence of fever, and 3) no rescue antibiotic medication at the ECE visit, for the mITT population.
# The secondary efficacy outcomes were as follows: 1) Lesion area decrease by ≧20% from Baseline at ECE, 2) Investigator-Assessed Clinical Response at PTE, 3) Sustained Clinical Response at PTE.
# The analyses were performed for patients who had lesion area assessments at baseline and ECE using the mITT and CE populations.
# If a patient had clinical failure assessed beyond the PTE visit window, the patient was considered as a clinical failure. If a patient had clinical success assessed beyond the PTE visit window, a) and if the patient had clinical failure before the PTE visit, the patient was considered a clinical failure at PTE or b) if the patient had clinical success also before the PTE visit, the patient was considered a clinical success at PTE.
# [2] = test system: ABSSSI caused by susceptible gram-positive bacteria, including MRSA; assay: SOLO II Phase 3 trial, efficacy; assay type: in vivo, human
# Description: Complete results were obtained from a phase 3 clinical trial program of oritavancin (SOLO), which investigated the drug for the treatment of acute bacterial skin and skin structure infections (ABSSSI) caused by susceptible gram-positive bacteria, including methicillin-resistant Staphylococcus aureus (MRSA). SOLO I and SOLO II clinical trials were identical multicenter, double-blind, randomized clinical trials.
# In SOLO II, all protocol-specified primary and secondary efficacy endpoints were met. […] The efficacy was similar in the overall population and in those patients with microbiologically confirmed MRSA infections.
# [3] = confirmed MRSA, Microbiological ITT, ECE
# [4] = confirmed MRSA, Microbiological ITT, ECE, oritavancin n = 100, vancomycin n = 101
# [5] = confirmed MRSA, Microbiological ITT, PTE
# [6] = confirmed MRSA, Microbiological ITT, PTE, oritavancin n = 100, vancomycin n = 101
# [7] = mITT, ECE, oritavancin n = 503, vancomycin n = 502
# [8] = mITT, ECE, oritavancin vs vancomycin
# [9] = mITT, PTE, oritavancin n = 503, vancomycin n = 502
smiles,measurement,setting,value
"CN[C@H](CC(C)C)C(=O)N[C@H]1C(=O)N[C@@H](CC(N)=O)C(=O)N[C@H]2C(=O)N[C@H]3C(=O)N[C@H](C(=O)N[C@H](C(=O)O)c4cc(O)cc(O)c4-c4cc3ccc4O)[C@H](O[C@H]3C[C@](C)(N)[C@@H](O)[C@H](C)O3)c3ccc(c(Cl)c3)Oc3cc2cc(c3O[C@@H]2O[C@H](CO)[C@@H](O)[C@H](O)[C@H]2O[C@H]2C[C@](C)(NCc3ccc(-c4ccc(Cl)cc4)cc3)[C@@H](O)[C@H](C)O2)Oc2ccc(cc2Cl)[C@H]1O [Oritavancin, N^DISACC-(4-(4-chlorophenyl)benzyl)A82846B]",Efficacy versus vancomycin for ECE and PTE endpoints,[1]; 10% non-inferiority margin,non-inferior to vancomycin
same,Patients both early treatment responders (lesion size reduction of ≧20% at ECE) and clinical successes at PTE,[1]; CE population,more than 84%
same,Difference in lesion size reduction ≧20% rate (oritavancin minus vancomycin),[1]; CE,1.9%
same,Difference in primary efficacy endpoint rate (oritavancin minus vancomycin),[1]; CE,1.2%
same,Lesion Size Reduction ≧20% From Baseline,[1]; CE,90.6%
same,"Primary efficacy endpoint response rate (cessation of spread, absence of fever, no rescue antibiotics)",[1]; CE,87.3%
same,Difference in investigator-assessed clinical cure rate (oritavancin minus vancomycin),[1]; CE,−1.3%
same,Difference in sustained clinical cure rate (oritavancin minus vancomycin),[1]; CE,−3.9%
same,Investigator-Assessed Clinical Cure,[1]; CE,91.9%
same,Sustained Clinical Cure,[1]; CE,79.4%
same,Difference in lesion size reduction ≧20% rate (oritavancin minus vancomycin),[1]; MRSA MicroE,7.5%
same,Difference in primary efficacy endpoint rate (oritavancin minus vancomycin),[1]; MRSA MicroE,1.8%
same,Lesion Size Reduction ≧20% From Baseline,[1]; MRSA MicroE,96.5%
same,"Primary efficacy endpoint response rate (cessation of spread, absence of fever, no rescue antibiotics)",[1]; MRSA MicroE,88.4%
same,Difference in investigator-assessed clinical cure rate (oritavancin minus vancomycin),[1]; MRSA MicroE,−2.2%
same,Difference in sustained clinical cure rate (oritavancin minus vancomycin),[1]; MRSA MicroE,−2.8%
same,Investigator-Assessed Clinical Cure,[1]; MRSA MicroE,95.3%
same,Sustained Clinical Cure,[1]; MRSA MicroE,81.4%
same,Difference in lesion size reduction ≧20% rate (oritavancin minus vancomycin),[1]; MRSA MicroITT,6.4%
same,Difference in primary efficacy endpoint rate (oritavancin minus vancomycin),[1]; MRSA MicroITT,0.8%
same,Lesion Size Reduction ≧20% From Baseline,[1]; MRSA MicroITT,90.4%
same,"Primary efficacy endpoint response rate (cessation of spread, absence of fever, no rescue antibiotics)",[1]; MRSA MicroITT,80.8%
same,Lesion Size Reduction ≧20% From Baseline,"[1]; MRSA MicroITT, listed as oritavancin",90.4%
same,Difference in investigator-assessed clinical cure rate (oritavancin minus vancomycin),[1]; MRSA MicroITT,−0.3%
same,Difference in sustained clinical cure rate (oritavancin minus vancomycin),[1]; MRSA MicroITT,−0.7%
same,Investigator-Assessed Clinical Cure,[1]; MRSA MicroITT,82.7%
same,Sustained Clinical Cure,[1]; MRSA MicroITT,68.3%
same,Difference in lesion size reduction ≧20% rate (oritavancin minus vancomycin),[1]; mITT,4.1%
same,Difference in primary efficacy endpoint rate (oritavancin minus vancomycin),[1]; mITT,3.4%
same,Lesion Size Reduction ≧20% From Baseline,[1]; mITT,86.9%
same,"Primary efficacy endpoint response rate (cessation of spread, absence of fever, no rescue antibiotics)",[1]; mITT,82.3%
same,Lesion Size Reduction ≧20% From Baseline,"[1]; mITT, listed as oritavancin",86.9%
same,"Primary efficacy endpoint response rate (cessation of spread, absence of fever, no rescue antibiotics)","[1]; mITT, listed as oritavancin",82.3%
same,Difference in investigator-assessed clinical cure rate (oritavancin minus vancomycin),[1]; mITT,−0.4%
same,Difference in sustained clinical cure rate (oritavancin minus vancomycin),[1]; mITT,−2.6%
same,Investigator-Assessed Clinical Cure,[1]; mITT,79.6%
same,Sustained Clinical Cure,[1]; mITT,67.2%
same,Investigator-Assessed Clinical Cure,"[1]; mITT, listed as oritavancin",79.6%
same,Sustained Clinical Cure,"[1]; mITT, listed as oritavancin",67.2%
same,Efficacy versus vancomycin for ECE and PTE endpoints,[2],non-inferior to vancomycin
same,"FDA primary endpoint: Cessation of spread, absence of fever, no rescue antibiotics",[2]; [3],82.0%
same,≧20% reduction of lesion area,[2]; [3],96.0%
same,"FDA primary endpoint: Cessation of spread, absence of fever, no rescue antibiotics, number of patients",[2]; [4],82
same,"≧20% reduction of lesion area, number of patients",[2]; [4],96
same,EMA primary endpoint: Investigator-assessed clinical cure,[2]; [5],84.0%
same,"EMA primary endpoint: Investigator-assessed clinical cure, number of patients",[2]; [6],84
same,"FDA primary endpoint: Cessation of spread, absence of fever, no rescue antibiotics","[2]; mITT, ECE",80.1%
same,≧20% reduction of lesion area,"[2]; mITT, ECE",85.9%
same,"FDA primary endpoint: Cessation of spread, absence of fever, no rescue antibiotics, number of patients",[2]; [7],403
same,"≧20% reduction of lesion area, number of patients",[2]; [7],432
same,"% Difference (95% CI), FDA primary endpoint",[2]; [8],"−2.7 (−7.5, 2.0) %"
same,"% Difference (95% CI), ≧20% reduction of lesion area",[2]; [8],"0.6 (−3.7, 5.0) %"
same,EMA primary endpoint: Investigator-assessed clinical cure,"[2]; mITT, PTE",82.7%
same,"EMA primary endpoint: Investigator-assessed clinical cure, number of patients",[2]; [9],416
same,"% Difference (95% CI), investigator-assessed clinical cure","[2]; mITT, PTE, oritavancin vs vancomycin","2.2 (−2.6, 7.0) %"
"CN[C@H](CC(C)C)C(=O)N[C@H]1C(=O)N[C@@H](CC(N)=O)C(=O)N[C@H]2C(=O)N[C@H]3C(=O)N[C@H](C(=O)N[C@H](C(=O)O)c4cc(O)cc(O)c4-c4cc3ccc4O)[C@H](O)c3ccc(c(Cl)c3)Oc3cc2cc(c3O[C@@H]2O[C@H](CO)[C@@H](O)[C@H](O)[C@H]2O[C@H]2C[C@](C)(N)[C@H](O)[C@H](C)O2)Oc2ccc(cc2Cl)[C@H]1O [Vancomycin, vancomycin]",Lesion Size Reduction ≧20% From Baseline,[1]; CE,88.7%
same,"Primary efficacy endpoint response rate (cessation of spread, absence of fever, no rescue antibiotics)",[1]; CE,86.1%
same,Investigator-Assessed Clinical Cure,[1]; CE,93.2%
same,Lesion Size Reduction ≧20% From Baseline,[1]; MRSA MicroE,89.0%
same,"Primary efficacy endpoint response rate (cessation of spread, absence of fever, no rescue antibiotics)",[1]; MRSA MicroE,86.6%
same,Investigator-Assessed Clinical Cure,[1]; MRSA MicroE,97.6%
same,Lesion Size Reduction ≧20% From Baseline,[1]; MRSA MicroITT,84.0%
same,"Primary efficacy endpoint response rate (cessation of spread, absence of fever, no rescue antibiotics)",[1]; MRSA MicroITT,80.0%
same,Lesion Size Reduction ≧20% From Baseline,"[1]; MRSA MicroITT, listed as vancomycin",84.0%
same,Investigator-Assessed Clinical Cure,[1]; MRSA MicroITT,83.0%
same,Sustained Clinical Cure,[1]; MRSA MicroITT,69.0%
same,Lesion Size Reduction ≧20% From Baseline,[1]; mITT,82.9%
same,"Primary efficacy endpoint response rate (cessation of spread, absence of fever, no rescue antibiotics)",[1]; mITT,78.9%
same,Lesion Size Reduction ≧20% From Baseline,"[1]; mITT, listed as vancomycin",82.9%
same,"Primary efficacy endpoint response rate (cessation of spread, absence of fever, no rescue antibiotics)","[1]; mITT, listed as vancomycin",78.9%
same,Investigator-Assessed Clinical Cure,[1]; mITT,80.0%
same,Sustained Clinical Cure,[1]; mITT,69.7%
same,Investigator-Assessed Clinical Cure,"[1]; mITT, listed as vancomycin",80.0%
same,Sustained Clinical Cure,"[1]; mITT, listed as vancomycin",69.7%
same,"FDA primary endpoint: Cessation of spread, absence of fever, no rescue antibiotics",[2]; [3],81.2%
same,≧20% reduction of lesion area,[2]; [3],90.1%
same,"FDA primary endpoint: Cessation of spread, absence of fever, no rescue antibiotics, number of patients",[2]; [4],82
same,"≧20% reduction of lesion area, number of patients",[2]; [4],91
same,EMA primary endpoint: Investigator-assessed clinical cure,[2]; [5],85.1%
same,"EMA primary endpoint: Investigator-assessed clinical cure, number of patients",[2]; [6],86
same,"FDA primary endpoint: Cessation of spread, absence of fever, no rescue antibiotics","[2]; mITT, ECE",82.9%
same,≧20% reduction of lesion area,"[2]; mITT, ECE",85.3%
same,"FDA primary endpoint: Cessation of spread, absence of fever, no rescue antibiotics, number of patients",[2]; [7],416
same,"≧20% reduction of lesion area, number of patients",[2]; [7],428
same,EMA primary endpoint: Investigator-assessed clinical cure,"[2]; mITT, PTE",80.5%
same,"EMA primary endpoint: Investigator-assessed clinical cure, number of patients",[2]; [9],404
